≈ marks a conversion by molar mass, not a printed value. Where two headings read alike, the source gives them in different places.
Columns and labels:
MRSA clinical isolates = assay: MIC by broth microdilution against multidrug-resistant MRSA clinical isolates; type: cell-based, Staphylococcus aureus; settings: for MIC Range Against 8 MRSA Strains: 8 multidrug-resistant MRSA clinical isolates, tested 0.125-1 mg/L; for MIC: Staphylococcus aureus, MRSA
Method: Clinical MRSA isolates with multidrug resistance were obtained from the collection of the Research Institute of Antimicrobial Chemotherapy, Smolensk State Medical Academy.
The MICs were determined using a broth microdilution method according to [42]. Briefly, serial dilutions of the tested compounds in 50 µL of Mueller Hinton broth (BD) were prepared in 96-well microplates. The antibiotics vancomycin and linezolid (Sigma-Aldrich, St. Louis, MO, USA) were used as a positive control. Bacterial suspensions of the tested MRSA strains were prepared in the Mueller Hinton broth (BD) with a concentration 1 × 10^6 CFU/mL, and then 50 µL aliquots were added to the prepared microplates. The final concentrations of the antibiotics in the wells were 1, 0.5, 0.25, and 0.125 mg/L, for the tested compounds, and 2 mg/L for vancomycin and linezolid. Negative control (lack of bacterial cells) and growth control (lack of compound) wells were included in all plates. The microplates were incubated at 37 °C for 18 h. The growth was assessed visually after incubation, and the MIC was assumed as the lowest compound concentration at which a noticeable growth of the microorganisms was inhibited (no visible growth). All experiments were conducted in triplicate.

[1] = system: human embryonic fibroblasts (HEFs); assay: MTT cytotoxicity on human embryonic fibroblasts; type: cell-based; settings: Homo sapiens, Fibroblast, 24 h, ND = non-toxic in tested concentrations (up to 50 mg/L)
Method: (§1) The primary screening of 22 substances was performed on human embryonic fibroblasts (HEFs). […] The HepG2 cell line was obtained from the American Type Culture Collection (ATCC cat. # HB-8065). The primary HEF cells (normal human embryonic fibroblasts) were derived from human embryonic stem cells. The cells were cultured in DMEM/F12 (1:1) medium containing 10% fetal bovine serum (Invitrogen, Carlsbad, CA, USA) at 37 °C and 5% CO2, according to standard mammalian tissue culture protocols and sterile technique. […] The incubation time with the substance was 24 h for all substances and cell lines. Cell detachment by trypsin, centrifugation, and counting in a hemocytometer were performed 16 h before the addition of the substance. For correct counting of the HepG2 cells, the cell suspension was passed through a syringe needle to get rid of cell aggregates. The cells were placed in the wells of a 96-well plate. The number of cells was selected according to the properties of the cell line and the final optical density in the experiment. Fibroblasts and hepatocytes were used in the amount of 10 thousand cells per well in 100 μL of DMEM/F12 medium supplemented with 10% fetal bovine serum. The substances were added to 100 µL of medium in the wells so that the final concentrations were 50, 25, 12.5, 6.25, 3.125, and 1.62 mg/L. The final well volume was 200 µL. The medium containing fetal bovine serum, without added substances, was used as a negative control. After 24 h, excessive amounts of medium were discarded. A total of 30 µL of MTT solution (5 mg/mL in PBS) was added to each well. After the precipitation of formazan crystals (3 h incubation), they were dissolved using 100 μL of dimethyl sulfoxide. The optical density (OD) was measured at 570 nm using a microplate reader (Eppendorf). For every condition, the cell viabilities were assessed in at least three independent experiments for every cell culture. Cell survival was calculated using the following formula:(OD of treated cells − OD blank)/(OD of control cells − OD blank) × 100%, where OD blank represents the OD values in wells without cells but with the addition of the MTT and DMSO solutions. The results were presented in the form of cytotoxicity curves, and the graphs were also plotted in a Microsoft Excel program; the calculation of the IC50 half-maximal inhibition concentration values was performed in a GraphPad Prism 6.0 (GraphPad Software Inc., San Diego, CA, USA) program, based on the equations of the cytotoxicity curves.

[2] = Solubility in water by HPLC; type: physicochemical; settings: water, kinetic from dmso stock
Method: The solubility of the compounds in water was assessed using HPLC analysis. Two 1.0 mg portions of the test compounds were dissolved in 10 μL of dimethyl sulfoxide; 1.0 mL of acetonitrile was added to one sample (standard), and 1.0 mL of water was added to the second sample (tested sample). Both vials were mixed in a shaker for 5 min, then centrifuged at 10,000 rpm for 5 min. The supernatants were collected and analyzed using Agilent 1290 Infinity (Agilent Technologies, Santa Clara, CA, USA) with a YMC-Triart C18 50 × 2.0 mm, 1.9 μm column. The concentration of the test compound in water was determined by comparing the peak areas of the standard (concentration 1.0 mg/mL) and the tested sample.

Caco-2 cells = assay: Caco-2 cell monolayer permeability; type: in vitro ADME, human
Method: The MultiScreen Caco-2 (ATCC cat. # HTB-37) test system (Millipore, St. Charles, MO, USA) was used to study the transport through a cell monolayer, according to the manufacturer’s instructions. Briefly, a study of transport from the apical membrane to the basolateral (A-B) area and in the opposite direction (B-A) was carried out on a 21-day culture of Caco-2 at a 1 µM concentration of the tested compound for 2 h. Monolayer integrity was verified by measuring electrical resistance (TEER) using a Millicell-ERS instrument. A TEER value of at least 3 KOhm/well was determined to be acceptable.

[3] = system: HepG2 human liver carcinoma cells; assay: MTT cytotoxicity (hepatotoxicity) on HepG2; type: cell-based; settings: Homo sapiens, HepG2, 24 h
Method: as §1

MRSA = assay: Selectivity index (average IC50 on eukaryotic cells / average MIC on MRSA); type: cell-based, Staphylococcus aureus; settings: average IC50 on eukaryotic cells divided by average MIC on MRSA
Method: The selectivity index was calculated for each compound as the average IC50 on eukaryotic cells divided by the average MIC on MRSA (Table 2).

[4] = read-out: Solubility in water, mass concentration
[5] = read-out: Solubility in water, molar concentration
[6] = Caco-2, first value: A-B / apical

| MIC Range Against 8 MRSA Strains (MRSA clinical isolates) | solubility at 5 min [2, 4] | solubility at 5 min [2, 5] | Compound | IC50 [1] | further results |
| --- | --- | --- | --- | --- | --- |
| >1 µg/mL | 1.22 µg/mL | 4 µM | CCOC(=O)c1[nH]c2ccccc2c1/N=N/N1CCC(C)CC1 [BX-SI055, Ethyl (E)-3-((4-methylpiperidin-1-yl)diazenyl)-1H-indole-2-carboxylate] | 16 µg/mL (≈ 50.9 µM) |  |
|  |  |  | rhodamine |  | Asymmetry index (Caco-2 cells; Caco-2): 3.20; Papp A-B (Caco-2 cells; Caco-2, 1 µM, 2 h): 1.14 10^-6 sm/s; Papp B-A (Caco-2 cells; Caco-2, 1 µM, 2 h): 3.65 10^-6 sm/s; Mass balance (Caco-2 cells; [6]): 92.1%; Mass balance (Caco-2 cells; Caco-2, second value: B-A / basolateral): 95.8% |
| 1 µg/mL (≈ 3.15 µM) | 475 µg/mL | 1490 µM | CCOC(=O)c1[nH]c2ccccc2c1/N=N/N(C)CCN(C)C [BX-SI010, Ethyl (E)-3-(3-(2-(dimethylamino)ethyl)-3-methyltriaz-1-en-1-yl)-1H-indole-2-carboxylate] | 19 µg/mL (≈ 59.9 µM) |  |
|  |  |  | CC(C)NCC(O)COc1cccc2ccccc12 (centres unmarked) [Propranolol, propranolol] |  | Papp A-B (Caco-2 cells; Caco-2, 1 µM, 2 h): 44.6 10^-6 sm/s; Mass balance (Caco-2 cells; [6]): 91.7% |
| 1 µg/mL (≈ 3.04 µM) | 70.2 µg/mL | 210 µM | CCOC(=O)c1[nH]c2ccccc2c1/N=N/N1CCCN(C)CC1 [BX-SI005, Ethyl (E)-3-((4-methyl-1,4-diazepan-1-yl)diazenyl)-1H-indole-2-carboxylate] | 12 µg/mL (≈ 36.4 µM) |  |
| 1 µg/mL (≈ 3.12 µM) | 4.48 µg/mL | 14 µM | CCOC(=O)c1[nH]c2cc(F)ccc2c1/N=N/N1CCOCC1 [BX-SI040, Ethyl (E)-6-fluoro-3-(morpholinodiazenyl)-1H-indole-2-carboxylate] | 12 µg/mL (≈ 37.5 µM) |  |
| 0.25 to 0.5 µg/mL | 2.77 µg/mL | 10 µM | CCOC(=O)c1[nH]c2cc(F)ccc2c1/N=N/N1CCC(C)CC1 [BX-SI045, Ethyl (E)-6-fluoro-3-((4-methylpiperidin-1-yl)diazenyl)-1H-indole-2-carboxylate] | 29 µg/mL (≈ 87.2 µM) | MIC (MRSA clinical isolates; 8 MRSA strains, read-out: lowest MIC values against most tested strains): 0.25 µg/mL (≈ 0.752 µM); MIC (MRSA clinical isolates; Figure 6, MRSA strain 2, read-out: MIC against 8 MRSA strains): 0.5 µg/mL (≈ 1.5 µM); MIC (MRSA clinical isolates; Figure 6, MRSA strain 7, read-out: MIC against 8 MRSA strains): 0.5 µg/mL (≈ 1.5 µM); MIC (MRSA clinical isolates; Figure 6, MRSA strain 8, read-out: MIC against 8 MRSA strains): 0.25 µg/mL (≈ 0.752 µM); MIC (MRSA clinical isolates; Figure 6, MRSA strain 9, read-out: MIC against 8 MRSA strains): 0.25 µg/mL (≈ 0.752 µM); MIC (MRSA clinical isolates; Figure 6, MRSA strain 13, read-out: MIC against 8 MRSA strains): 0.5 µg/mL (≈ 1.5 µM); MIC (MRSA clinical isolates; Figure 6, MRSA strain 21, read-out: MIC against 8 MRSA strains): 0.25 µg/mL (≈ 0.752 µM); MIC (MRSA clinical isolates; Figure 6, MRSA strain 48, read-out: MIC against 8 MRSA strains): 0.25 µg/mL (≈ 0.752 µM); MIC (MRSA clinical isolates; Figure 6, MRSA strain 50, read-out: MIC against 8 MRSA strains): 0.25 µg/mL (≈ 0.752 µM); IC50 [3]: 22 µg/mL (≈ 66.2 µM); Selectivity Index (MRSA): 74 |

Source: paper PMC11899342, “Novel Triazeneindole Antibiotics: Synthesis and Hit-to-Lead Optimization” (International Journal of Molecular Sciences, 2025)
